T/C data for 13 compounds are collected here from PubChem BioAssay AID248 (DTP/NCI, 2004).

“And” between values parts separate entries of the source, which are not always exact repeats. Identical values can stand only once. Inconclusive results and toxic doses are left out.

In this test the test system is L1210 leukemia ip in BDF1 mice, survival T/C. The test can be described thus: NCI In Vivo Anticancer Drug Screen. Data for tumor model L1210 Leukemia (intraperitoneal) in B6D2F1 (BDF1) mice. The note with it: endpoint: mean survival time, higher = longer survival. The essentials: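 Ratio derived from survival: compound-dosed mice over vehicle-dosed mice, all bearing a transplantable tumor.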

Setting [1] is: dose: 100.0 mg/kg/injection, schedule: Q04DX003 (ip), vehicle: saline with Tween-80.
The mark [2] stands for this setting: dose: 200.0 mg/kg/injection, schedule: Q04DX003 (ip), vehicle: saline with Tween-80.
Where [3] appears, read: dose: 400.0 mg/kg/injection, schedule: Q04DX003 (ip), vehicle: saline with Tween-80.
The mark [4] stands for this setting: dose: 25.0 mg/kg/injection, schedule: Q01DX009 (ip), vehicle: Klucel (hydroxypropylcellulose) (HPC).
Setting [5] is: dose: 50.0 mg/kg/injection, schedule: Q01DX009 (ip), vehicle: Klucel (hydroxypropylcellulose) (HPC).
Setting [6] is: dose: 100.0 mg/kg/injection, schedule: Q01DX009 (ip), vehicle: Klucel (hydroxypropylcellulose) (HPC).
Where [7] appears, read: dose: 100.0 mg/kg/injection, schedule: Q04DX003 (ip), vehicle: Klucel (hydroxypropylcellulose) (HPC).
Setting [8] is: dose: 200.0 mg/kg/injection, schedule: Q01DX009 (ip), vehicle: Klucel (hydroxypropylcellulose) (HPC).
[9] abbreviates: dose: 400.0 mg/kg/injection, schedule: Q01DX009 (ip), vehicle: Klucel (hydroxypropylcellulose) (HPC).
Setting [10] is: dose: 100.0 mg/kg/injection, schedule: Q01DX009 (ip), vehicle: saline with Tween-80.

Consider `COC(=O)C1=CNC=C(C(=O)OC)C1c1ccc(C)cc1`, for which the T/C is, setting by setting: under setting [1], 95 % of control; under setting [2], 93 % of control; under setting [3], 91 % of control.
As to `O=C1c2ccccc2C(Cl)=C(Cl)C1(Cl)Cl`, the T/C was 90 % of control under setting [4], 90 % of control under setting [5], 90 % of control under setting [6] and 96 % of control under setting [7].
For the compound `COC(=O)c1ccc(OS(=O)(=O)c2cccc([N+](=O)[O-])c2)cc1`, the T/C under setting [6] is 96 % of control; the T/C under setting [7] is 90 % of control; the T/C under setting [8] was 98 % of control; the T/C (dose: 200.0 mg/kg/injection, schedule: Q04DX003 (ip), vehicle: Klucel (hydroxypropylcellulose) (HPC)) is 95 % of control; the T/C under setting [9] was 118 % of control; the T/C (dose: 400.0 mg/kg/injection, schedule: Q04DX003 (ip), vehicle: Klucel (hydroxypropylcellulose) (HPC)) is 90 % of control.
Regarding `COCCCN=C(N)c1ccc(NC(=O)c2ccc(C(=O)Nc3ccc(C(N)=NCCCOC)cc3)cc2)cc1`, the T/C was 114 % of control (dose: 0.75 mg/kg/injection, schedule: Q01DX Z (ip), vehicle: saline); 106 % of control (dose: 1.0 mg/kg/injection, schedule: Q01DX006 (iv), vehicle: saline); 119 % of control (dose: 1.0 mg/kg/injection, schedule: Q01DX Z (ip), vehicle: saline); 102 % of control (dose: 1.0 mg/kg/injection, schedule: Q01DX Z (sc), vehicle: saline); 96 % of control (dose: 1.0 mg/kg/injection, schedule: Q02DX004 (im), vehicle: saline); 98 % of control (dose: 2.0 mg/kg/injection, schedule: Q01DX006 (iv), vehicle: saline). Besides, the T/C reads like this: (dose: 2.0 mg/kg/injection, schedule: Q01DX Z (sc), vehicle: saline) 90 % of control; (dose: 2.0 mg/kg/injection, schedule: Q02DX004 (im), vehicle: saline) 107 % of control; (dose: 3.0 mg/kg/injection, schedule: Q01DX Z (ip), vehicle: saline) 156 % of control and 183 % of control; (dose: 4.0 mg/kg/injection, schedule: Q01DX006 (iv), vehicle: saline) 122 % of control; (dose: 4.0 mg/kg/injection, schedule: Q01DX Z (ip), vehicle: saline) 223 % of control; (dose: 4.0 mg/kg/injection, schedule: Q01DX Z (sc), vehicle: saline) 154 % of control. Also, the T/C was 106 % of control (dose: 4.0 mg/kg/injection, schedule: Q02DX004 (im), vehicle: saline); 269 % of control (dose: 6.0 mg/kg/injection, schedule: Q01DX Z (ip), vehicle: saline); 97 % of control (dose: 6.0 mg/kg/injection, schedule: Q01DX Z (oral), vehicle: saline); 189 % of control (dose: 8.0 mg/kg/injection, schedule: Q01DX006 (iv), vehicle: saline); 158 % of control (dose: 8.0 mg/kg/injection, schedule: Q01DX Z (sc), vehicle: saline); 100 % of control (dose: 12.0 mg/kg/injection, schedule: Q01DX Z (oral), vehicle: saline). Further, the T/C reads like this: (dose: 15.0 mg/kg/injection, schedule: Q01DX Z (ip), vehicle: saline) 115 % of control; (dose: 16.0 mg/kg/injection, schedule: Q01DX Z (ip), vehicle: saline) 112 % of control; (dose: 16.0 mg/kg/injection, schedule: Q01DX Z (sc), vehicle: saline) 116 % of control; (dose: 16.0 mg/kg/injection, schedule: Q02DX004 (im), vehicle: saline) 154 % of control; (dose: 24.0 mg/kg/injection, schedule: Q01DX Z (oral), vehicle: saline) 102 % of control; (dose: 32.0 mg/kg/injection, schedule: Q02DX004 (im), vehicle: saline) 118 % of control. The T/C runs as follows: (dose: 48.0 mg/kg/injection, schedule: Q01DX Z (oral), vehicle: saline) 100 % of control; (dose: 62.5 mg/kg/injection, schedule: Q## X010 (oral), vehicle: saline) 96 % of control; (dose: 250.0 mg/kg/injection, schedule: Q## X010 (oral), vehicle: saline) 119 % of control.
As for `COc1ccc(OC)c(-c2cc3c(OC)ccc(OC)c3[nH]2)c1`, the T/C runs as follows: (dose: 25.0 mg/kg/injection, schedule: Q04DX002 (ip), vehicle: saline with Tween-80) 96 % of control; (dose: 50.0 mg/kg/injection, schedule: Q04DX002 (ip), vehicle: saline with Tween-80) 86 % of control; (dose: 100.0 mg/kg/injection, schedule: Q04DX002 (ip), vehicle: saline with Tween-80) 99 % of control.
As for `CCCCCCCCCCCCCCCSc1ccc(Br)cc1`, the T/C was 97 % of control under setting [1], 102 % of control under setting [2] and 94 % of control under setting [3].
Consider `c1ccc(-n2nc3c(c2OCCN2CCCC2)CCCc2ccccc2-3)cc1`, for which, under setting [10], the T/C is 104 % of control.
In the case of `O=C(O)CCC(=O)Nc1cccc(C(F)(F)F)c1`, the T/C under setting [6] is 103 % of control, the T/C under setting [8] was 105 % of control and the T/C under setting [9] is 100 % of control.
In the case of `CN=NNc1ccccc1`, the T/C (dose: 12.0 mg/kg/injection, schedule: Q01DX009 (ip), vehicle: saline) is 114 % of control; the T/C (dose: 12.5 mg/kg/injection, schedule: Q01DX009 (ip), vehicle: Klucel (hydroxypropylcellulose) (HPC)) is 100 % of control; the T/C (dose: 18.0 mg/kg/injection, schedule: Q01DX009 (ip), vehicle: saline) is 118 % of control; the T/C under setting [4] was 97 % of control; the T/C under setting [5] was 102 % of control; the T/C (dose: 75.0 mg/kg/injection, schedule: Q04DX003 (ip), vehicle: saline with Tween-80) is 113 % of control. For the same compound, the T/C reads like this: under setting [6], 156 % of control; under setting [1], 121 % of control; (dose: 150.0 mg/kg/injection, schedule: Q04DX003 (ip), vehicle: saline with Tween-80) 164 % of control; (dose: 337.0 mg/kg/injection, schedule: Q04DX003 (ip), vehicle: saline with Tween-80) 153 % of control.
Regarding `CCOC(=O)C(C)(C(=O)OCC)c1cccc2ccccc12`, the T/C reads like this: (dose: 100.0 mg/kg/injection, schedule: Q01DX001 (ip), vehicle: other) 98 % of control; (dose: 100.0 mg/kg/injection, schedule: Q04DX003 (ip), vehicle: other) 93 % of control; (dose: 200.0 mg/kg/injection, schedule: Q01DX001 (ip), vehicle: other) 102 % of control; (dose: 200.0 mg/kg/injection, schedule: Q04DX003 (ip), vehicle: other) 100 % of control; (dose: 400.0 mg/kg/injection, schedule: Q01DX001 (ip), vehicle: other) 96 % of control; (dose: 400.0 mg/kg/injection, schedule: Q04DX003 (ip), vehicle: other) 94 % of control.
For the compound `C=CCOc1ccccn1`, the T/C is, setting by setting: (dose: 50.0 mg/kg/injection, schedule: Q01DX009 (ip), vehicle: saline with Tween-80) 98 % of control; (dose: 50.0 mg/kg/injection, schedule: Q04DX003 (ip), vehicle: saline with Tween-80) 105 % of control; under setting [10], 104 % of control; under setting [1], 98 % of control; (dose: 200.0 mg/kg/injection, schedule: Q01DX009 (ip), vehicle: saline with Tween-80) 98 % of control; under setting [2], 102 % of control.
As for `COc1cc(C=NC(CO)C(=O)O)ccc1O.COc1cc(C=NC(CO)C(=O)O)ccc1O.[Fe]` (stereo unspecified), the T/C (dose: 100.0 mg/kg/injection, schedule: Q01DX009 (ip), vehicle: saline) was 92 % of control; the T/C (dose: 100.0 mg/kg/injection, schedule: Q04DX003 (ip), vehicle: saline) is 88 % of control; the T/C (dose: 200.0 mg/kg/injection, schedule: Q01DX009 (ip), vehicle: saline) is 92 % of control; the T/C (dose: 200.0 mg/kg/injection, schedule: Q04DX003 (ip), vehicle: saline) is 95 % of control; the T/C (dose: 400.0 mg/kg/injection, schedule: Q01DX009 (ip), vehicle: saline) is 95 % of control; the T/C (dose: 400.0 mg/kg/injection, schedule: Q04DX003 (ip), vehicle: saline) was 93 % of control.
For `CCOc1ccc(NS(=O)(=O)c2ccc(Cl)cc2)cc1`, the T/C is 102 % of control under setting [6], 112 % of control under setting [8] and 116 % of control under setting [9].
